Assay results: ChEMBL document CHEMBL4507268 (2021)

Assays:
Details in all cases: Compound concentration 1000.0 nM
[1] = target: TRAF2 and NCK-interacting protein kinase (Homo sapiens) (UniProt Q9UKE5)
[2] = target: Serine/threonine-protein kinase PAK 4 (Homo sapiens) (UniProt O96013)
[3] = target: Dual specificity mitogen-activated protein kinase kinase 2 (Homo sapiens) (UniProt P36507)
[4] = target: Vascular endothelial growth factor receptor 1 (Homo sapiens) (UniProt P17948)
[5] = target: Activin receptor type-2A (Homo sapiens) (UniProt P27037)
[6] = target: T1, Serine/threonine-protein kinase haspin (Homo sapiens) (UniProt Q8TF76)
T1 sequence (whole entry): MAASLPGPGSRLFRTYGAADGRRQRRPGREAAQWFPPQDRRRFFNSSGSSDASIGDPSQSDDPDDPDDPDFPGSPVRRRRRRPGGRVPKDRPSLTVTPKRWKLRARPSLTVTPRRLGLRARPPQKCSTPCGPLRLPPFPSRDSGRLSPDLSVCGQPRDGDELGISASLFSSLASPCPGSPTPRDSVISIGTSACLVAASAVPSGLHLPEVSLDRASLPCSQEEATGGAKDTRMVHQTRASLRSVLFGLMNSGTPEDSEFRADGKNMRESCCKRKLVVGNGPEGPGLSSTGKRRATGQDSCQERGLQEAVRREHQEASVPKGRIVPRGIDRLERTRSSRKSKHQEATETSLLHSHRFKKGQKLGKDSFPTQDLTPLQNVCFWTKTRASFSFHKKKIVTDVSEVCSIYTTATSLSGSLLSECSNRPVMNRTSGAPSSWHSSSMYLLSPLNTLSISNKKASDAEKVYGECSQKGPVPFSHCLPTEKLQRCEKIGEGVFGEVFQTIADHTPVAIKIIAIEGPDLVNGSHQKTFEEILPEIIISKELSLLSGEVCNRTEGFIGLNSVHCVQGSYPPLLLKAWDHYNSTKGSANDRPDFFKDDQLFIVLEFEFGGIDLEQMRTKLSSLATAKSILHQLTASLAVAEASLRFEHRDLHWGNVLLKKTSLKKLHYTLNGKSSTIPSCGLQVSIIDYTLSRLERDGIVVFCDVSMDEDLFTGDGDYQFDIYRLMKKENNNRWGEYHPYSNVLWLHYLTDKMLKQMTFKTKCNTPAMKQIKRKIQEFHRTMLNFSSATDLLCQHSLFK

[7] = test system: Mast/stem cell growth factor receptor Kit (Homo sapiens), P10721 [L576P]
[8] = target: Serine/threonine-protein kinase Nek4 (Homo sapiens) (UniProt P51957)
[9] = target: T2, Serine/threonine-protein kinase 17B (Homo sapiens) (UniProt O94768)
T2 sequence (whole entry): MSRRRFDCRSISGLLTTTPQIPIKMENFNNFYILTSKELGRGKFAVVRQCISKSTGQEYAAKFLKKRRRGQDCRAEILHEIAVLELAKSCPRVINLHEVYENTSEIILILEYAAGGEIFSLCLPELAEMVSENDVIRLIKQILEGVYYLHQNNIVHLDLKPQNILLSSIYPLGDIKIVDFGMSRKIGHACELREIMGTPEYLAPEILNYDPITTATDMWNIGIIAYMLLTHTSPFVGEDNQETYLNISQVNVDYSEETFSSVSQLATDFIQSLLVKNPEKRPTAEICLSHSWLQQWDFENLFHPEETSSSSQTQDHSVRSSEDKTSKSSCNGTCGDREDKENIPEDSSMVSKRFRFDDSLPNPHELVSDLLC

[10] = target: T3, Mitogen-activated protein kinase 13 (Homo sapiens) (UniProt O15264)
T3 sequence (whole entry): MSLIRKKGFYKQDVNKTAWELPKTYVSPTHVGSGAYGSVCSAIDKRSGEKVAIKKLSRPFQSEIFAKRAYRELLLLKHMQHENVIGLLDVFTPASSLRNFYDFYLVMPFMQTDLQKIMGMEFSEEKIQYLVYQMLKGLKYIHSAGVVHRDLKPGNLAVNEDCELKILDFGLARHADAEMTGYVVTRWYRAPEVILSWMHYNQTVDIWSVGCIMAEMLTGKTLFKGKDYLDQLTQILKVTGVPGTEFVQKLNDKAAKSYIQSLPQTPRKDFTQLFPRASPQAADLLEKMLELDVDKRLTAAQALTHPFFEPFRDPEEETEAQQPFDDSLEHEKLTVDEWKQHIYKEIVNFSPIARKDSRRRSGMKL

[11] = target: Membrane-associated tyrosine- and threonine-specific cdc2-inhibitory kinase (Homo sapiens) (UniProt Q99640)
[12] = target: T4, Tyrosine-protein kinase ITK/TSK (Homo sapiens) (UniProt Q08881)
T4 sequence (whole entry): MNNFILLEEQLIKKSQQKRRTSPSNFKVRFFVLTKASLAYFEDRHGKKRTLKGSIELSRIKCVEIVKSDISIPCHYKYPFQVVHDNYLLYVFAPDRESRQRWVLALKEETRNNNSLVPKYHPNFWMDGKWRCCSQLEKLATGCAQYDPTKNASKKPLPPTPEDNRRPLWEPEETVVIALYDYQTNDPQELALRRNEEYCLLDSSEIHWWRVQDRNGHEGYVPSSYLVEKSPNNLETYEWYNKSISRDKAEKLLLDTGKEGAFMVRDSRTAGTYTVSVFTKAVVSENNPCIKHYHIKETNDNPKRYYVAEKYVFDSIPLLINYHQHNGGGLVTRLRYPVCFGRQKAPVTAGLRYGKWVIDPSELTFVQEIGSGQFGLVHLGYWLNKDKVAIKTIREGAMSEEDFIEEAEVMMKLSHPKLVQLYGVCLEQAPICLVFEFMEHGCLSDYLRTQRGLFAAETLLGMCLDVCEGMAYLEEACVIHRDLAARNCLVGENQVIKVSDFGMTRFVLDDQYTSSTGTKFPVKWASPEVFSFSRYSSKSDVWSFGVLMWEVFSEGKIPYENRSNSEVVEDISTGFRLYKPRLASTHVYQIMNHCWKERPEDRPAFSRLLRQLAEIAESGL

[13] = test system: Epidermal growth factor receptor (Homo sapiens), P00533 [G719S]
[14] = target: Serine/threonine-protein kinase DCLK1 (Homo sapiens) (UniProt O15075)
[15] = target: Ribosomal protein S6 kinase alpha-4 (Homo sapiens) (UniProt O75676)
[16] = target: Serine/threonine-protein kinase PAK 2 (Homo sapiens) (UniProt Q13177)

Measured: residual activity

Sequence of Serine/threonine-protein kinase Nek4 (Homo sapiens) (P51957 whole entry, looked up): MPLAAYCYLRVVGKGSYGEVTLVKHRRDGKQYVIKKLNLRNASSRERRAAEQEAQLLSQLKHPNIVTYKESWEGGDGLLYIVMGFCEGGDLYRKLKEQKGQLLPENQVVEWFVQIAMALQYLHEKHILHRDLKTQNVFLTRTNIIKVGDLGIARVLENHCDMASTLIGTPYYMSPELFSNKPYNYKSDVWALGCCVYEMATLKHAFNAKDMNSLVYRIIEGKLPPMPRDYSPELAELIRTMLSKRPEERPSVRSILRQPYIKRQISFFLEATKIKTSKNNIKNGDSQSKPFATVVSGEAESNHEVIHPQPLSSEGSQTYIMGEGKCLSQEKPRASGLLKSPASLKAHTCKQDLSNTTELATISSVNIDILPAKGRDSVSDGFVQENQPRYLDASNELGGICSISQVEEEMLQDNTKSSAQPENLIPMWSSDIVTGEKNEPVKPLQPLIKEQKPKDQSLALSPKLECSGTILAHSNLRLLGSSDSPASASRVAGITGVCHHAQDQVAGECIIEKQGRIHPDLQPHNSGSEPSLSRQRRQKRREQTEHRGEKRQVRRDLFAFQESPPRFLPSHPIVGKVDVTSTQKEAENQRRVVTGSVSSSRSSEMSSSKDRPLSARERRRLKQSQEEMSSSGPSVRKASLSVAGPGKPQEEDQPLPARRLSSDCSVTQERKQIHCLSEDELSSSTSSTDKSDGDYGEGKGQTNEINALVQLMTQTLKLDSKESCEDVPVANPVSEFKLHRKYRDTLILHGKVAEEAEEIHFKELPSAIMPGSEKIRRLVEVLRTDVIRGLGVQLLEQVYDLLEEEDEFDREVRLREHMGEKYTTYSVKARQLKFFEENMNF
Sequence of Membrane-associated tyrosine- and threonine-specific cdc2-inhibitory kinase (Homo sapiens) (Q99640 whole entry): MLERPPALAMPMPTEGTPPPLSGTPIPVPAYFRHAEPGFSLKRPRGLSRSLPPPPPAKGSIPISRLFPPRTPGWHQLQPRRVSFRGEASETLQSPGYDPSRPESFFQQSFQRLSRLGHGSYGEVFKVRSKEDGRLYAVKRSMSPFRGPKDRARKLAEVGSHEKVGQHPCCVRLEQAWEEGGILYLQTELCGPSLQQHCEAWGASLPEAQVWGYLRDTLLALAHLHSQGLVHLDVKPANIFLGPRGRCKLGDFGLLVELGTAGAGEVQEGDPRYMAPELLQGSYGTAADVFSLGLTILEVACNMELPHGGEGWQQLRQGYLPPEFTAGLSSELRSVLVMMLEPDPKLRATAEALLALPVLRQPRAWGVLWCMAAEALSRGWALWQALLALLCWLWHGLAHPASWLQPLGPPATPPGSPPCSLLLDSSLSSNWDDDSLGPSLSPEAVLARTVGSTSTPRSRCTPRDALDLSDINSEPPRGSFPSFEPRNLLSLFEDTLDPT
Sequence of Mast/stem cell growth factor receptor Kit (Homo sapiens), P10721 [L576P] (P10721 whole entry L576P): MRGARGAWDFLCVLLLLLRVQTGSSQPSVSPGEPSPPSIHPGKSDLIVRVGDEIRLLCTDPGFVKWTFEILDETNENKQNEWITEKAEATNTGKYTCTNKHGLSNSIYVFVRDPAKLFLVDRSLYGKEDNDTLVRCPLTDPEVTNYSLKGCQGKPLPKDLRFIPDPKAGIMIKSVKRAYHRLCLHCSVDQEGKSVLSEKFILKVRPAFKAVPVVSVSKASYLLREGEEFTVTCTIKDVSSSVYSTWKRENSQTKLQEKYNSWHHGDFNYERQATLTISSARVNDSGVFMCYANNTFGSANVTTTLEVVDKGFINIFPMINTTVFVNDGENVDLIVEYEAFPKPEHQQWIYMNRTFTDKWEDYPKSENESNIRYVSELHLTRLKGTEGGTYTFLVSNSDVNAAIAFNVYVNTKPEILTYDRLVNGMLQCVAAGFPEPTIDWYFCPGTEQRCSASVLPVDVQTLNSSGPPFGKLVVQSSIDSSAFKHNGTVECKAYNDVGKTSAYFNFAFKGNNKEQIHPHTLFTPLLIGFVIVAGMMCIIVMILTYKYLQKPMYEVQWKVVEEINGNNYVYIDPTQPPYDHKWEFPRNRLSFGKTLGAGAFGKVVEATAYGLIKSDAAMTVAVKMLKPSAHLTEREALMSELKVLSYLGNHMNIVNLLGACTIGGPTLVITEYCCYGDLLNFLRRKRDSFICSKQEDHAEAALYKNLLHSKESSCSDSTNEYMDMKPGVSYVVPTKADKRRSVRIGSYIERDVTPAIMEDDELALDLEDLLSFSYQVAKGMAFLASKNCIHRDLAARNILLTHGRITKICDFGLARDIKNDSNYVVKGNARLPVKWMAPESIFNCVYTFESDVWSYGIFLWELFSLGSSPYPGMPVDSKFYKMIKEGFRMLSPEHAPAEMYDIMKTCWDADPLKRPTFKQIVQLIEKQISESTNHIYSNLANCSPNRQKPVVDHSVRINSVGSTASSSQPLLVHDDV
Sequence of Activin receptor type-2A (Homo sapiens) (P27037 whole entry): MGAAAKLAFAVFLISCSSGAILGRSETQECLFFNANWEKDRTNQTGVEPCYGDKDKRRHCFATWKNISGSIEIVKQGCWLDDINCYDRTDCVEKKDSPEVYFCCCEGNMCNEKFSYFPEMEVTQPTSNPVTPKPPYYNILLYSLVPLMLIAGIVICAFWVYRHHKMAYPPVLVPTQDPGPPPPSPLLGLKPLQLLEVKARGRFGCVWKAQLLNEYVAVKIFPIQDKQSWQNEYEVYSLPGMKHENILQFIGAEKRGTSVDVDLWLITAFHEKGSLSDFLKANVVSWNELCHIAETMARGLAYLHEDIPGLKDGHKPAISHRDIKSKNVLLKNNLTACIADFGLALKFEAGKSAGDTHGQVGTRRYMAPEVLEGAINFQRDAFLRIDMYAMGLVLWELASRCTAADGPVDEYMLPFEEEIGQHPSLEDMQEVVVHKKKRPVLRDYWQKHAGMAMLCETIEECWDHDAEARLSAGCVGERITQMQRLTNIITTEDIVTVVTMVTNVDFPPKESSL
Sequence of Vascular endothelial growth factor receptor 1 (Homo sapiens) (P17948 whole entry): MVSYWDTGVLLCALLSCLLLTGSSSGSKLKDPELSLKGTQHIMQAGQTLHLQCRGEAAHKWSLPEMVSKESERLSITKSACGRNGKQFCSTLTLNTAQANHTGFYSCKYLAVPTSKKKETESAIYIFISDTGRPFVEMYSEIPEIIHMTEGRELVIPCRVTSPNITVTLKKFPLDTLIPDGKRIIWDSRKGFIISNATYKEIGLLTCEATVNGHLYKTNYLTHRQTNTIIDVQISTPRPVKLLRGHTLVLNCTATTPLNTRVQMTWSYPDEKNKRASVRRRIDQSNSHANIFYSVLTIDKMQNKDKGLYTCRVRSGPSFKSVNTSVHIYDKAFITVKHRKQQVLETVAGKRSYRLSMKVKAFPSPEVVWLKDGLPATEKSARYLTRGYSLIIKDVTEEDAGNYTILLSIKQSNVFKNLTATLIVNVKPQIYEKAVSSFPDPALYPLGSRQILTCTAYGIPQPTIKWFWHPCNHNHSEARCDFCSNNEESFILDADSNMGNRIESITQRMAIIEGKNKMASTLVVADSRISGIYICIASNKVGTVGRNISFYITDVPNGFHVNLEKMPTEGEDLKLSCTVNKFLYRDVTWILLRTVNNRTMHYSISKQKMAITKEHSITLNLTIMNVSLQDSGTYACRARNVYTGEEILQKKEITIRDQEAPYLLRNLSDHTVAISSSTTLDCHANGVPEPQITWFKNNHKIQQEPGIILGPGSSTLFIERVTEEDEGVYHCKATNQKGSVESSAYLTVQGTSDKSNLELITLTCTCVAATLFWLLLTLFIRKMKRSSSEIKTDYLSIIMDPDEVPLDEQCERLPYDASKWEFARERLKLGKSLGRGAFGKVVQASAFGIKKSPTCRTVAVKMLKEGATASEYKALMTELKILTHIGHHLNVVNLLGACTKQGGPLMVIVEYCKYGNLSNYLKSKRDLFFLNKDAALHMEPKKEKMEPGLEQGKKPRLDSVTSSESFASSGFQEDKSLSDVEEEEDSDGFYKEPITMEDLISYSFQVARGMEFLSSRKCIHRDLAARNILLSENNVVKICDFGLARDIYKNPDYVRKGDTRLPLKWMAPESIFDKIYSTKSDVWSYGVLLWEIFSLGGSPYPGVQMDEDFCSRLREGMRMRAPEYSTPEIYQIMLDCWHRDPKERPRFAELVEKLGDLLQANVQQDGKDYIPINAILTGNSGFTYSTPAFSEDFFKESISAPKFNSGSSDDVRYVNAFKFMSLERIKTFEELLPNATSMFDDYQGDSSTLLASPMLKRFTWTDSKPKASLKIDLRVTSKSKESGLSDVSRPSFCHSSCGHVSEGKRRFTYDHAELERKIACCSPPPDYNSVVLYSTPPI
Sequence of Serine/threonine-protein kinase DCLK1 (Homo sapiens) (O15075 whole entry): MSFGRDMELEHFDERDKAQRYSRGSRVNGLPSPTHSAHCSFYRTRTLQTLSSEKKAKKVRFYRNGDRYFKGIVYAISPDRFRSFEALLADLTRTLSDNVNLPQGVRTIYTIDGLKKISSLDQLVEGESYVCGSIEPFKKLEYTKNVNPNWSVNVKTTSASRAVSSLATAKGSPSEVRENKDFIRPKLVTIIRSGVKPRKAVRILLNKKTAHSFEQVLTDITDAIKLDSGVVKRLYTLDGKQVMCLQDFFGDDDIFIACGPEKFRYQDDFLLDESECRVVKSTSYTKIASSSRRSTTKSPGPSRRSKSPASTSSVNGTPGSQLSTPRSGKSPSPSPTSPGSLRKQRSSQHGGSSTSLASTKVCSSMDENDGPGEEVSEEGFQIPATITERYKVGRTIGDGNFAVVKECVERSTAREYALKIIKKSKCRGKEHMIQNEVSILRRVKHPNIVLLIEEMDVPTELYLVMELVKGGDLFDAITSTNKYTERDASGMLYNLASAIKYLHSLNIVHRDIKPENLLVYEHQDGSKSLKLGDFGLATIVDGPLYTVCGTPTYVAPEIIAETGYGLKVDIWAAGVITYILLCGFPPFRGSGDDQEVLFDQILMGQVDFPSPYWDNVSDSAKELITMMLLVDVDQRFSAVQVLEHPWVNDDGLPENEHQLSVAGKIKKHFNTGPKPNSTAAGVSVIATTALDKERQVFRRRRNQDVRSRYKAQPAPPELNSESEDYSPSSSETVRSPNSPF

Cc1nc(C2CCN(C(=O)c3ccc(OC(F)(F)F)cc3N)CC2)c2ncc(N3CCN(C)CC3)cc2n1 [BAY-693]
inactive: [1] 100% | [2] 100% | [3] 100% | [4] 88% | [5] 100% | [6] 100% | [7] 87% | [8] 100% | [9] 99% | [10] 100% | [11] 100% | [12] 89% | [13] 100% | [14] 85% | [15] 93% | [16] 64%

CN1CCN(c2cnc3c(C4CCN(C(=O)c5ccc(OC(F)(F)F)cc5N)CC4)ncnc3c2)CC1 [BAY-885]
inactive: [1] 100% | [2] 91% | [3] 100% | [4] 76% | [5] 100% | [6] 100% | [7] 95% | [8] 100% | [9] 86% | [10] 100% | [11] 100% | [12] 100% | [13] 100% | [14] 85% | [15] 100% | [16] 100%
